According to patent publication US20220281848A1, “PYRAZOLE-SUBSTITUTED PYRROLIDINONES AS HERBICIDES” (FMC Corporation, priority 2019, published 2022):

Tested on: plants
Experiment: Test D post-emergence, other plants of Tables D2 and D4
Type: in vivo
Settings: for damage to plant (100=total damage to plant; 0=no damage to plant), ABUTH / damage to plant (100=total damage to plant; 0=no damage to plant), AMARE / damage to plant (100=total damage to plant; 0=no damage to plant), BIDPI / damage to plant (100=total damage to plant; 0=no damage to plant), BRAPL / damage to plant (100=total damage to plant; 0=no damage to plant), CYPES / damage to plant (100=total damage to plant; 0=no damage to plant), DIGSA / damage to plant (100=total damage to plant; 0=no damage to plant), ECHCG / damage to plant (100=total damage to plant; 0=no damage to plant), ELEIN / damage to plant (100=total damage to plant; 0=no damage to plant), EPHHL / damage to plant (100=total damage to plant; 0=no damage to plant), GLXMA / damage to plant (100=total damage to plant; 0=no damage to plant), IPOHE / damage to plant (100=total damage to plant; 0=no damage to plant), ORYSA / damage to plant (100=total damage to plant; 0=no damage to plant), PANMI / damage to plant (100=total damage to plant; 0=no damage to plant), SETFA / damage to plant (100=total damage to plant; 0=no damage to plant), SORVU: post-emergence
Description: A formulation containing 50 g/L of the test chemical was prepared by dissolving the active ingredient in a mixture of organic solvents and emulsifier, details of which are provided in the table. This formulation was then mixed with a small, variable amount of acetone to aid dissolution, before addition of a 0.2% v/v aqueous solution of an adjuvant, as the aqueous diluent, to form an aqueous spray solution which contains a predetermined concentration of the active ingredient.
This aqueous spray solution was then sprayed onto plants including maize and wheat that had been seed treated with a herbicide safener, after one day's cultivation (for pre-emergence) or after about 12 days' cultivation (for post-emergence). The plants were grown from seeds sown in standard soil, placed in a glasshouse under controlled conditions (at 24/18° C. or 20/16° C., day/night; 16 h light; 65% humidity). After spray application the plants were then grown in a glasshouse under the same conditions and watered twice daily. After 15 d for post-emergence and 20 DAA for pre-emergence the test was evaluated (100=total damage to plant; 0=no damage to plant).

[1] = "Cereals" Postemergent, Rates 130, evaluated after 15 d
[2] = "Cereals" Postemergent, Rates 250, evaluated after 15 d
[3] = "Cereals" Postemergent, Rates 500, evaluated after 15 d

CN1CC(c2cc(C(F)(F)F)n(C)n2)C(C(=O)Nc2ccc(F)cc2F)C1=O (racemic) [Compound 6]
SINAR damage rating (100=total damage to plant; 0=no damage to plant) (SINAR, "Cereals" Postemergent, Rates 500, evaluated after 15 d): 40
STEME damage rating (100=total damage to plant; 0=no damage to plant) [1]: 0
STEME damage rating (100=total damage to plant; 0=no damage to plant) [2]: 0
STEME damage rating (100=total damage to plant; 0=no damage to plant) [3]: 10
VERPE damage rating (100=total damage to plant; 0=no damage to plant) [1]: 0
VERPE damage rating (100=total damage to plant; 0=no damage to plant) [2]: 10
VERPE damage rating (100=total damage to plant; 0=no damage to plant) [3]: 20
damage to plant (100=total damage to plant; 0=no damage to plant), ABUTH (rate 130, evaluated after 15 d): 0
damage to plant (100=total damage to plant; 0=no damage to plant), ABUTH (rate 250, evaluated after 15 d): 10
damage to plant (100=total damage to plant; 0=no damage to plant), ABUTH (rate 500, evaluated after 15 d): 20
damage to plant (100=total damage to plant; 0=no damage to plant), AMARE (rate 130, evaluated after 15 d): 0
damage to plant (100=total damage to plant; 0=no damage to plant), AMARE (rate 500, evaluated after 15 d): 20
damage to plant (100=total damage to plant; 0=no damage to plant), BIDPI (rate 130, evaluated after 15 d): 0
damage to plant (100=total damage to plant; 0=no damage to plant), BIDPI (rate 250, evaluated after 15 d): 0
damage to plant (100=total damage to plant; 0=no damage to plant), BIDPI (rate 500, evaluated after 15 d): 0
damage to plant (100=total damage to plant; 0=no damage to plant), BRAPL (rate 130, evaluated after 15 d): 50
damage to plant (100=total damage to plant; 0=no damage to plant), BRAPL (rate 250, evaluated after 15 d): 60
damage to plant (100=total damage to plant; 0=no damage to plant), BRAPL (rate 500, evaluated after 15 d): 70
damage to plant (100=total damage to plant; 0=no damage to plant), CYPES (rate 130, evaluated after 15 d): 0
damage to plant (100=total damage to plant; 0=no damage to plant), CYPES (rate 250, evaluated after 15 d): 0
damage to plant (100=total damage to plant; 0=no damage to plant), CYPES (rate 500, evaluated after 15 d): 0
damage to plant (100=total damage to plant; 0=no damage to plant), DIGSA (rate 130, evaluated after 15 d): 0
damage to plant (100=total damage to plant; 0=no damage to plant), DIGSA (rate 250, evaluated after 15 d): 60
damage to plant (100=total damage to plant; 0=no damage to plant), DIGSA (rate 500, evaluated after 15 d): 70
damage to plant (100=total damage to plant; 0=no damage to plant), ECHCG (rate 130, evaluated after 15 d): 0
damage to plant (100=total damage to plant; 0=no damage to plant), ECHCG (rate 250, evaluated after 15 d): 50
damage to plant (100=total damage to plant; 0=no damage to plant), ECHCG (rate 500, evaluated after 15 d): 70
damage to plant (100=total damage to plant; 0=no damage to plant), ELEIN (rate 130, evaluated after 15 d): 0
damage to plant (100=total damage to plant; 0=no damage to plant), ELEIN (rate 250, evaluated after 15 d): 0
damage to plant (100=total damage to plant; 0=no damage to plant), ELEIN (rate 500, evaluated after 15 d): 0
damage to plant (100=total damage to plant; 0=no damage to plant), EPHHL (rate 130, evaluated after 15 d): 10
damage to plant (100=total damage to plant; 0=no damage to plant), EPHHL (rate 250, evaluated after 15 d): 20
damage to plant (100=total damage to plant; 0=no damage to plant), EPHHL (rate 500, evaluated after 15 d): 30
damage to plant (100=total damage to plant; 0=no damage to plant), GLXMA (rate 130, evaluated after 15 d): 0
damage to plant (100=total damage to plant; 0=no damage to plant), GLXMA (rate 250, evaluated after 15 d): 0
damage to plant (100=total damage to plant; 0=no damage to plant), GLXMA (rate 500, evaluated after 15 d): 0
damage to plant (100=total damage to plant; 0=no damage to plant), IPOHE (rate 130, evaluated after 15 d): 0
damage to plant (100=total damage to plant; 0=no damage to plant), IPOHE (rate 250, evaluated after 15 d): 10
damage to plant (100=total damage to plant; 0=no damage to plant), IPOHE (rate 500, evaluated after 15 d): 20
damage to plant (100=total damage to plant; 0=no damage to plant), ORYSA (rate 130, evaluated after 15 d): 0
damage to plant (100=total damage to plant; 0=no damage to plant), ORYSA (rate 250, evaluated after 15 d): 0
damage to plant (100=total damage to plant; 0=no damage to plant), ORYSA (rate 500, evaluated after 15 d): 0
damage to plant (100=total damage to plant; 0=no damage to plant), PANMI (rate 130, evaluated after 15 d): 0
damage to plant (100=total damage to plant; 0=no damage to plant), PANMI (rate 250, evaluated after 15 d): 0
damage to plant (100=total damage to plant; 0=no damage to plant), PANMI (rate 500, evaluated after 15 d): 0
damage to plant (100=total damage to plant; 0=no damage to plant), SETFA (rate 130, evaluated after 15 d): 0
damage to plant (100=total damage to plant; 0=no damage to plant), SETFA (rate 250, evaluated after 15 d): 20
damage to plant (100=total damage to plant; 0=no damage to plant), SETFA (rate 500, evaluated after 15 d): 70
damage to plant (100=total damage to plant; 0=no damage to plant), SORVU (rate 130, evaluated after 15 d): 0
damage to plant (100=total damage to plant; 0=no damage to plant), SORVU (rate 250, evaluated after 15 d): 0
damage to plant (100=total damage to plant; 0=no damage to plant), SORVU (rate 500, evaluated after 15 d): 0
